Where “and” joins values, the source holds several entries; their conditions need not be identical. Equal entries are not always repeated.
Experiments:
Homo sapiens = settings: clinical; duration: 1 days; inhalation; nose only; unknown; respiratory
Mus musculus [1] = settings: repeat dose other; oral
Rattus norvegicus [2] = settings: M/F
Rattus norvegicus [3] = settings: chronic; duration: 22 months; oral; drinking water; M/F; Spartan Sprague-Dawley; hematological
Mus musculus [4] = settings: subchronic, oral
Mus musculus [5] = settings: chronic; duration: 78 weeks; oral; diet; M/F; CD1; Increased incidences of fatty change & hypertrophy in hepatocytes
Mus musculus [6] = settings: uterotrophic; duration: 3 days; injection; subcutaneous; Active
Rattus norvegicus [7] = settings: for LEL: uterotrophic, injection, subcutaneous, Active
Rattus norvegicus [8] = settings: subchronic, duration: 13 weeks, oral, M/F, Fischer 344
Mus musculus [9] = settings: oral, drinking water
Mus musculus [10] = settings: oral, drinking water, B6C3F1, immunological
Canidae [11] = tested on: Canidae
Canidae [12] = settings: oral, capsule, M/F, Histopathological changes in the spleen and bone marrow indicative of anaemia
Rattus norvegicus [13] = settings: duration: 2 years, oral, M/F, Crl, Reduced bodyweight gain
Mus musculus [14] = settings: inhalation
Primate = settings: inhalation
Rattus norvegicus [15] = settings: Sprague-Dawley
Rattus norvegicus [16] = settings: repeat dose other; oral
Rattus norvegicus [17] = settings: subchronic; duration: 90 days; oral; gavage; Blood: Increased alkaline phosphatase + Blood: Increased SGPT + Brain: Decreased weight
Neovison sp. = settings: repeat dose other; oral; Mink
[18] = Hershberger, duration: 10 days, oral, gavage, Sprague-Dawley, active + Androgenic + Negative + androgenic
[19] = reproduction developmental, duration: 20 days, F, CD1
[20] = reproduction developmental, duration: 6 days, Macaca Fascicularis
[21] = developmental, duration: 11 days, inhalation
[22] = short-term, duration: 4 weeks, inhalation
[23] = subchronic, duration: 90 days, oral, gavage
[24] = subchronic, duration: 90 days, oral, reduced body weight and neurotoxicity

FF [Fluorine]
NOAEL (Homo sapiens): 15.5 mg/m3

[Mo].[O-2].[O-2].[O-2].[O-2] [Tetraoxomolybdate(2-)]
LOAEL (Mus musculus [1]): 2.6 mg/kg-day
NOAEL (Mus musculus [1]): 0.26 mg/kg-day

C=CC#N [Acrylonitrile]
LOAEL (Rattus norvegicus [2]; chronic, duration: 2 years, inhalation, Degeneration and inflammation of nasal respiratory epithelium + hyperplasia of mucous secreting cells): 43 mg/m3
LOAEL (Rattus norvegicus [3]): 0.09 mg/kg-day
NOAEL (Mus musculus [4]; duration: 60 days, gavage, Testes: Decreased sperm counts + Testes: Seminiferous tubule degeneration): 1 mg/kg-day

C[C@](C#N)(COc1cc(C#N)ccc1C(F)(F)F)NC(=O)c1ccc(SC(F)(F)F)cc1 [Monepantel]
LOAEL (Mus musculus [5]): 5.5 mg/kg-day
NOAEL (Mus musculus [5]): 1.8 mg/kg-day

C[C@]12CC[C@H]3C(=CCc4cc(O)ccc43)[C@@H]1CCC2=O [Equilin]
LEL (gamma) (Mus musculus [6]): 1 and 3
LOEL (Rattus norvegicus [7]; [18]): 2 mg/kg-day
NOEL (Rattus norvegicus [7]; [18]): 0.5 mg/kg-day
LEL (Rattus norvegicus [7]; duration: 3 days): 2 mg/kg-day
LEL (Rattus norvegicus [7]; duration: 7 days): 0.00025 mg/day

ClC=C(Cl)Cl [Trichloroethylene]
LOAEL (Mus musculus [1]): 7 mg/kg-day
NOAEL (Mus musculus [1]): 0.7 mg/kg-day
NOEL (Rattus norvegicus [8]; gavage, Histopathology: Lung-Pulmonary vasculitis Kidney-Cytomegaly/Karyomegaly, Renal tubular epithelial cell in the inner cortex): 1000 mg/kg-day
LOAEL (Mus musculus [9]; chronic, duration: 30 weeks, F, Decreased thymus weight in female B6C3F1 mice): 0.35 mg/kg-day
LOAEL (Mus musculus [9]; developmental, M/F, reduced plaque-forming cell (pfc) response, increased delayed-type hypersensitivity in b6c3f1 mice): 0.37 mg/kg-day
LOAEL (Mus musculus [10]; chronic, duration: 1 years, M/F): 0.37 mg/kg-day
LOAEL (Mus musculus [10]; chronic, duration: 30 weeks, F): 0.35 mg/kg-day
LOAEL (Mus musculus [10]; developmental, duration: 364 days, M/F): 0.37 mg/kg-day

c1ccc(Nc2cccc3ccccc23)cc1 [N-Phenyl-1-naphthylamine]
NOAEL (Canidae [11]; chronic, duration: 36 months, oral, diet, Dog Other): 290 mg/kg-day

O=C1CN(/N=C/c2ccc([N+](=O)[O-])o2)C(=O)N1 [Nitrofurantoin]
NOEL (Rattus norvegicus [8]; diet, Deaths + Body Weight Changes: decrease + Urinalysis: Bright yellow + Absolute Organ Weight: Liver increase + Relative Organ Weight: Liver …): < 57.6 mg/kg-day
NOAEL (Mus musculus [4]; duration: 13 weeks, diet, Testis: Damage): 59.1 mg/kg-day

c1ccc2[nH]c(-c3cscn3)nc2c1 [Thiabendazole]
NOEL (Canidae [12]; chronic, duration: 1 years, Beagle): 10 mg/kg-day
NOEL (Canidae [12]; chronic, duration: 1 years, Dog Other): 10 mg/kg-day
NOEL (Canidae [12]; duration: 1 year, Beagle): 10 mg/kg-day
NOEL (Canidae [12]; duration: 1 year, Dog Other): 10 mg/kg-day
LOEL (Rattus norvegicus [13]; chronic, diet): 40 mg/kg-day
NOEL (Rattus norvegicus [13]; chronic, diet): 10 mg/kg-day
LOEL (Rattus norvegicus [13]; feed): 40 mg/kg-day
NOEL (Rattus norvegicus [13]; feed): 10 mg/kg-day

O=C(O)c1ccccc1 [Benzoic acid]
LEL (Mus musculus [6]): 1 µg/100 g
LEL (ug/100 g BW) (Mus musculus [6]): 10

c1ccc2c(c1)cc1ccc3cccc4ccc2c1c34 [Benzo[a]pyrene]
LOAEL (Mus musculus [1]): 10 mg/kg-day
NOAEL (Mus musculus [1]): 1 mg/kg-day
LOAEL (Rattus norvegicus [2]; developmental, duration: 9 days, inhalation, reduced embryo/fetal survival): 0.025 mg/m3

CO [Methanol]
LOAEL (Mus musculus [14]; developmental, duration: 10 days, CD1): 2620 mg/m3
LOAEL (Mus musculus [14]; developmental, duration: 20 days, CD1): 13100 mg/m3
NOAEL (Mus musculus [14]; reproduction developmental, duration: 18 months, B6C3F1): > 1310 mg/m3
NOAEL (Mus musculus [14]; reproduction developmental, duration: 10 days, F, CD1): > 19700 mg/m3
LOAEL (Mus musculus [14]; [19]): ≤ 19700 mg/m3
NOAEL (Mus musculus [14]; [19]): ≥ 13100 mg/m3
NOAEL (Primate; developmental, duration: 120 days, Macaca Fascicularis): > 2360 mg/m3
LOAEL (Primate; [20]): 6550 mg/m3
NOAEL (Primate; [20]): 3930 mg/m3
NOAEL (Primate; reproduction developmental, duration: 120 days, F, Macaca Fascicularis): > 2360 mg/m3
NOAEL (Primate; reproduction developmental, duration: 365 days, generation: F0): > 2360 mg/m3
LOAEL (Rattus norvegicus [15]; [21]): ≤ 6550 mg/m3
NOAEL (Rattus norvegicus [15]; [21]): ≥ 1310 mg/m3
LOAEL (Rattus norvegicus [15]; developmental, duration: 19 days, inhalation): ≤ 26200 mg/m3
NOAEL (Rattus norvegicus [15]; reproduction developmental, duration: 11 days, inhalation, F): > 1310 mg/m3
LOAEL (Rattus norvegicus [15]; reproduction developmental, duration: 19 days, inhalation, F): ≤ 26200 mg/m3
NOAEL (Rattus norvegicus [15]; reproduction developmental, duration: 365 days, inhalation, generation: F0): 131 mg/m3
NOAEL (Rattus norvegicus [15]; reproduction developmental, duration: 365 days, inhalation, generation: F1): 131 mg/m3
NOAEL (Rattus norvegicus [15]; reproduction developmental, duration: 365 days, inhalation, generation: F2): 131 mg/m3
LOAEL (Rattus norvegicus [15]; [22]): 6550 mg/m3
NOAEL (Rattus norvegicus [15]; [22]): ≥ 3930 mg/m3
LOAEL (Rattus norvegicus [15]; [23]): 2500 mg/kg-day
NOAEL (Rattus norvegicus [15]; [23]): > 500 mg/kg-day
LOAEL (Rattus norvegicus [16]): 250 mg/kg-day
NOAEL (Rattus norvegicus [16]): 50 mg/kg-day
NOEL (Rattus norvegicus [17]): 500 mg/kg-day

FC(F)F [Trifluoromethane]
LOAEL (Canidae [11]; repeat dose other, inhalation, Beagle): > 14300 mg/m3

Cc1ccccc1O [o-Cresol]
NOAEL (Neovison sp.): 219 mg/kg-day
LOAEL (Rattus norvegicus [2]; [24]): 150 mg/kg-day
NOAEL (Rattus norvegicus [2]; [24]): 50 mg/kg-day
